Measured values taken from patent US20130211371A1, “FORMULATIONS AND METHODS OF TREATMENT OF SKIN CONDITIONS” (Hy Biopharma, Inc., priority 2010, published 2013).
Marks after values point to notes of the source that are not given here.

Legend:
[1] = cited from earlier work
[2] = tested on: MF lesions; assay: Phase II study, topical hypericin and visible light, MF arm; format: in vivo, human; settings: 6 weeks
Experimental: (§1) This study is designed to evaluate the safety and efficacy of topical hypericin in concentrations of 0.1% and 0.25% under occlusion for 24 hours followed by administration of visible light in doses ranging from 8 to 20 J/cm^2 twice weekly for 6 weeks for the treatment of psoriasis or MF. One of the four centers involved in the study administered topical hypericin in concentrations of 0.05 and 0.1%. The concentration of hypericin and the dose of light were based upon the Phase I study described above with normal volunteers.
A standardized topical amount of hypericin in either ointment or liquid formula was applied to defined plaques on the skin of volunteer subjects. […]
(§2) Skin reactions were evaluated each week immediately after irradiation and again at 48 and 72 hours later. The sites of irradiation were examined twice per week thereafter and all changes; e.g., erythema, edema, desquamation, pigmentation, etc, were recorded.
Lesion responses in this study were scored in accordance with the following scales at each patient evaluation:lesional CR=complete regression of the treated lesion; PR=>50% decrease in lesional area during treatment; Stable=<50% decrease in size or <25% increase in size during therapy; Progression=>25% increase in size during therapy. […] If so, the patient was scored as a responder for that lesion. […]

[3] = Phase I clinical trial, cutaneous phototoxicity of topical hypericin with visible light; format: in vivo, human
[4] = tested on: psoriasis lesions; assay: Phase II study, topical hypericin and visible light, psoriasis arm; format: in vivo, human; settings: All Ointment + Liquid, 6 weeks
Experimental: as §1
A standardized topical amount of hypericin in either ointment or liquid formula was applied to defined plaques on the skin of volunteer subjects. The amount of hypericin in each topical application was as follows: 0.05%=0.005 mg/cm^2; 0.1%=0.01 mg/ cm^2, and 0.25%=0.025 mg/ cm^2.
Each hypericin treatment or placebo was applied twice weekly for a period of 24 hours prior to irradiation. Each application site was covered by non-absorbing Webril cotton of equal area and occluded with occlusive tape (Blenderm, 3M); excess drug was removed prior to irradiation (24 hours post drug application).
Irradiation was undertaken using visible fluorescent bulbs (590-650 nm) (GE cool white fluorescent bulbs, 20-watt fluorescent tubes housed in a reflecting bank) for a period not to exceed 15 minutes (total number of joules approximately 5/cm^2). The light dose was administered twice weekly, separated by at least one day.
The light dose was increased once weekly by 1 joule/cm^2 until symptoms or signs of phototoxicity appeared. At that point, the dose could either be maintained or reduced by 1 joule/cm^2 if phototoxicity was pronounced (skin erythema of greater than 1+[minimal visible erythema).
as §2
Lesion responses in this study were scored in accordance with the following scales at each patient evaluation:lesional CR=complete regression of the treated lesion; PR=>50% decrease in lesional area during treatment; Stable=<50% decrease in size or <25% increase in size during therapy; Progression=>25% increase in size during therapy. The success/failure criterion for each lesion on each patient was whether there was a 50% or better improvement in the lesion area at the end of the 6-week treatment cycle. If so, the patient was scored as a responder for that lesion. Table 1 indicates the rating criteria for patient response.
All patients receiving treatment for MF were treated with the ointment preparation. For patients with psoriasis, 5 patients were treated with 0.1% and 0.25% aqueous solutions of hypericin in dimethyl sulfoxide (DMSO) and 6 patients were treated with the USP
Hydrophilic Ointment preparations. The liquid dosage form consisted of dissolving either 0.2 mL or 0.5 mL hypericin stock solution (polyethylene glycol solution) in 44.8 or 44.5 mL of 50% DMSO/water and mixing with a magnetic stirrer.
The response or lack of response, of each lesion treated with either placebo ointment or with a hypericin-containing ointment was analyzed as a binomial (i.e., yes/no) distribution.
This was an appropriate analysis for response which was quantal in nature. For the null hypothesis (no treatment response) it was assumed that spontaneous resolution of the lesion by the protocol specified 6-week time point would not occur. That is, the true probability of spontaneous lesion regression (defined as <50% of its baseline size for CTCL and to <50% of its combined baseline score for psoriasis lesions) was taken as zero (0%). For the MF analysis, a repeated measures logistic regression was employed to obtain p-values. For analysis of the psoriasis data, a likelihood ratio chi-square test was employed.

[5] = Phase II study, adverse events; format: in vivo, human
Experimental: as §2

Cc1cc(O)c2c(=O)c3c(O)cc(O)c4c5c(O)cc(O)c6c(=O)c7c(O)cc(C)c8c1c2c(c34)c(c78)c65 [Hypericin, 4,5,7,4′,5′,7′ -dimethyl-meso naphthodiantbrone]
half life ([1]; in vivo): 20 to 24 h
bioavailable following oral administration ([1]; oral): about 20%
Percent Responders, Hypericin 0.1% Dose (MF) ([2]; ointment 0.1%): 41.7%
Percent Responders, Hypericin 0.25% Dose (MF) ([2]; ointment 0.25%): 55.6%
Cutaneous reactions at 0.02% ([3]; 0.02% hypericin, any dose of light): no cutaneous reactions
Cutaneous photosensitivity at 0.1% and 0.5% ([3]; topical under occlusion, visible light 24 hours after application): causes cutaneous photosensitivity
Percent Responders, Response to 0.05% Dose (psoriasis) ([4]; 0.05%): 9.1%
Responders/Total, Response to 0.05% Dose (psoriasis) ([4]; 0.05%): 1/11
Percent Responders, Hypericin 0.1% Dose (psoriasis) ([4]; 0.1%): 36.4^a,b %
Responders/Total, Hypericin 0.1% Dose (psoriasis) ([4]; 0.1%): 4/11
Percent Responders, Hypericin 0.1% Dose (psoriasis) ([4]; 0.1%, listed as hypericin): 36.4%
Percent Responders, Hypericin 0.25% Dose (psoriasis) ([4]; 0.25%): 45.4%^b
Responders/Total, Hypericin 0.25% Dose (psoriasis) ([4]; 0.25%): 5/11
Percent Responders, Hypericin 0.25% Dose (psoriasis) ([4]; 0.25%, listed as hypericin): 45.4%
Percent Responders, All Hypericin Responders (psoriasis) ([4]; any dose): 54.6%^b
Responders/Total, All Hypericin Responders (psoriasis) ([4]; any dose): 6/11
Deaths or serious adverse events / overall safety ([5]; MF and psoriasis patients): No deaths or serious adverse events
Reported adverse events ([5]; at the application site after visible light): mild to moderate burning, itching, erythema, and pruritus at the application site
